Reference: patent publication US11925629B2, “Heterocyclic inhibitors of ERK1 and ERK2 and their use in the treatment of cancer” (Asana Biosciences, LLC, priority 2015, dated 2024)

How the values were obtained:
Assay type in all cases: cell-based, human
[1] = tested on: HT-29 (colorectal carcinoma, B-RafV600E) cells; test: Cell proliferation (Alamar Blue) assay, HT-29; details: Homo sapiens, HT-29, HT29 cells
Method in brief: (§1)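 IC50 values derive from variable-slope sigmoidal fits of Alamar Blue fluorescence (540 nm excitation, 590 nm emission, 1-3 h dye incubation). Compound treatment ran 72 h at 37° C./5% CO2 over roughly 0.0005-10 uM in 3-fold steps, on cells plated at 5000/well and pre-incubated 16-24 h.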

[2] = tested on: HCT116 (colorectal carcinoma, K Ras G13D) cells; test: Cell proliferation (Alamar Blue) assay, HCT116; details: Homo sapiens, HCT-116, HCT116 cells
Method in brief: as §1

[3] = tested on: phosphorylation of RSK1(S380) (the downstream target of ERK1/2); test: Phospho-RSK1(S380) ELISA assay in HT-29 cells; details: Homo sapiens, HT-29, HT29 cells, phospho-RSK1(S380); read-out: Mechanistic Cell Assay RSK1 Phos HT29 IC50
Method in brief: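 HT-29 colorectal carcinoma cells (B-RafV600E), plated overnight at 37° C./5% CO2, were treated with compound dilutions for 2 h. Lysates were analysed by phospho-RSK1(Ser380) sandwich ELISA with absorbance at 450 nm. IC50 came from a sigmoidal variable-slope dose-response fit.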

Row | IC50 [1] [nM] | IC50 [2] [nM] | IC50 [3] [nM] | Compound
1 | > 2500 | > 2500 | > 2500 | Cc1cnc(NC2CCNC2)nc1-n1ccc(C(=O)N[C@H](CO)c2cccc(Cl)c2)c1 (stereo partly drawn) [Example 174, N-((S)-1-(3-chlorophenyl)-2-hydroxyethyl)-1-(5-methyl-2-(pyrrolidin-3-ylamino)pyrimidin-4-yl)-1H-pyrrole-3-carboxamide]
2 | ≤ 100 | 250 to 500 | 100 to 250 | Cc1cnc(Nc2ccc(F)c(N3CCOCC3)c2)nc1-n1ccc(C(=O)NC(CO)c2cccc(Cl)c2)c1 (stereo not drawn) [Example 175, N-(1-(3-chlorophenyl)-2-hydroxyethyl)-1-(2-((4-fluoro-3-morpholinophenyl)amino)-5-methylpyrimidin-4-yl)-1H-pyrrole-3-carboxamide]
3 | 500 to 2500 | > 2500 | 500 to 2500 | O=C(NC(CO)c1cccc(Cl)c1)c1ccn(-c2ccnc(Nc3ccc4c(c3)OC(F)(F)O4)n2)c1 (stereo not drawn) [Example 176, N-(1-(3-chlorophenyl)-2-hydroxyethyl)-1-(2-((2,2-difluorobenzo[d][1,3]dioxol-5-yl)amino)pyrimidin-4-yl)-1H-pyrrole-3-carboxamide]
4 | ≤ 100 | 100 to 250 | 100 to 250 | Cc1cnc(Nc2ccc(F)cc2)nc1-n1cnc(C(=O)NC(CN)c2cccc(Cl)c2)c1 (stereo not drawn) [Example 177, N-(2-amino-1-(3-chlorophenyl)ethyl)-1-(2-((4-fluorophenyl)amino)-5-methylpyrimidin-4-yl)-1H-imidazole-4-carboxamide]
5 | > 2500 | 500 to 2500 | 250 to 500 | Cc1cnc(Nc2ccc(N3CCC(N4CCNCC4)CC3)cc2)nc1-n1ccc(C(=O)NC(CO)c2ccccc2)c1 (stereo not drawn) [Example 178, N-(2-hydroxy-1-phenylethyl)-1-(5-methyl-2-((4-(4-(piperazin-1-yl)piperidin-1-yl)phenyl)amino)pyrimidin-4-yl)-1H-pyrrole-3-carboxamide]
6 | 500 to 2500 | 500 to 2500 | 500 to 2500 | Cc1cnc(Nc2ccc(F)c(C(=O)N3CCN(C)CC3)c2)nc1-n1ccc(C(=O)NC(CO)c2cccc(Cl)c2)c1 (stereo not drawn) [Example 179, N-(1-(3-chlorophenyl)-2-hydroxyethyl)-1-(2-((4-fluoro-3-(4-methylpiperazine-1-carbonyl)phenyl)amino)-5-methylpyrimidin-4-yl)-1H-pyrrole-3-carboxamide]
7 | 500 to 2500 | > 2500 | 250 to 500 | Cc1cnc(Nc2ccccc2)cc1-n1cnc(C(=O)NC(CO)c2cccc(Cl)c2)c1 (stereo not drawn) [Example 180, N-(1-(3-chlorophenyl)-2-hydroxyethyl)-1-(5-methyl-2-(phenylamino)pyridin-4-yl)-1H-imidazole-4-carboxamide]
8 | > 2500 | > 2500 | 500 to 2500 | COc1cc(C(=O)N2CCOCC2)c(F)cc1Nc1ncc(C)c(-n2ccc(C(=O)NC(CO)c3cccc(Cl)c3)c2)n1 (stereo not drawn) [Example 181, N-(1-(3-chlorophenyl)-2-hydroxyethyl)-1-(2-((5-fluoro-2-methoxy-4-(morpholine-4-carbonyl)phenyl)amino)-5-methylpyrimidin-4-yl)-1H-pyrrole-3-carboxamide]
9 | 500 to 2500 | 250 to 500 | 500 to 2500 | Cc1cc(Nc2ncc(C)c(-n3ccc(C(=O)NC(CO)c4cccc(Cl)c4)c3)n2)ccc1C1CCNCC1 (stereo not drawn) [Example 182, N-(1-(3-chlorophenyl)-2-hydroxyethyl)-1-(5-methyl-2-((3-methyl-4-(piperidin-4-yl)phenyl)amino)pyrimidin-4-yl)-1H-pyrrole-3-carboxamide]
10 | > 2500 | > 2500 | 500 to 2500 | Cc1cn(-c2ccnc(Nc3ccccc3)c2)cc1C(=O)N[C@H](CO)c1cccc(Cl)c1 [Example 183, (S)-N-(1-(3-chlorophenyl)-2-hydroxyethyl)-4-methyl-1-(2-(phenylamino)pyridin-4-yl)-1H-pyrrole-3-carboxamide]
11 | 500 to 2500 | 250 to 500 | 500 to 2500 | COc1ccc(Nc2ncc(C)c(-n3ccc(C(=O)NC(CO)c4cccc(Cl)c4)c3)n2)cc1OCCCN(C)C (stereo not drawn) [Example 184, N-(1-(3-chlorophenyl)-2-hydroxyethyl)-1-(2-((3-(3-(dimethylamino)propoxy)-4-methoxyphenyl)amino)-5-methylpyrimidin-4-yl)-1H-pyrrole-3-carboxamide]
12 | 250 to 500 | 250 to 500 | 250 to 500 | Cc1cnc(Nc2ccc3c(c2)OCC3)nc1-n1ccc(C(=O)NC(CO)c2ccccc2)c1 (stereo not drawn) [Example 185, 1-(2-((2,3-dihydrobenzofuran-6-yl)amino)-5-methylpyrimidin-4-yl)-N-(2-hydroxy-1-phenylethyl)-1H-pyrrole-3-carboxamide]
13 | 500 to 2500 | 250 to 500 | 500 to 2500 | Cc1cnc(Nc2ccc3c(c2)OCCC3)nc1-n1ccc(C(=O)NC(CO)c2ccccc2)c1 (stereo not drawn) [Example 186, 1-(2-(chroman-7-ylamino)-5-methylpyrimidin-4-yl)-N-(2-hydroxy-1-phenylethyl)-1H-pyrrole-3-carboxamide]
14 | 250 to 500 | 500 to 2500 | 250 to 500 | Cc1cccc(C(CO)NC(=O)c2ccn(-c3nc(N[C@H]4CCOC4)ncc3C)c2)c1 (stereo partly drawn) [Example 187, N-(2-hydroxy-1-(m-tolyl)ethyl)-1-(5-methyl-2-(((S)-tetrahydrofuran-3-yl)amino)pyrimidin-4-yl)-1H-pyrrole-3-carboxamide]
15 | > 2500 | > 2500 | > 2500 | O=C(N[C@H](CO)c1cccc(Cl)c1)c1ccn(-c2ccnc(NC3CCOC3)c2)c1 (stereo partly drawn) [Example 188, N-((S)-1-(3-chlorophenyl)-2-hydroxyethyl)-1-(2-((tetrahydrofuran-3-yl)amino)pyridin-4-yl)-1H-pyrrole-3-carboxamide]
16 | > 2500 | > 2500 | 250 to 500 | Cc1cnc(NCC2CCCO2)nc1-n1ccc(C(=O)N[C@H](CO)c2cccc(Cl)c2)c1 (stereo partly drawn) [Example 190, N-((S)-1-(3-chlorophenyl)-2-hydroxyethyl)-1-(5-methyl-2-(((tetrahydrofuran-2-yl)methyl)amino)pyrimidin-4-yl)-1H-pyrrole-3-carboxamide]
17 | > 2500 | > 2500 | 500 to 2500 | Cc1cnc(NCc2cccnc2)cc1-n1ccc(C(=O)NC(CO)c2ccc(F)c(Cl)c2)c1 (stereo not drawn) [Example 193, N-(1-(3-chloro-4-fluorophenyl)-2-hydroxyethyl)-1-(5-methyl-2-((pyridin-3-ylmethyl)amino)pyridin-4-yl)-1H-pyrrole-3-carboxamide]
18 | 250 to 500 | 500 to 2500 | 250 to 500 | Cc1cnc(Nc2ccc(F)c(C(=O)N(C)C)c2)nc1-n1ccc(C(=O)NC(CO)c2cccc(Cl)c2)c1 (stereo not drawn) [Example 194, N-(1-(3-chlorophenyl)-2-hydroxyethyl)-1-(2-((3-(dimethylcarbamoyl)-4-fluorophenyl)amino)-5-methylpyrimidin-4-yl)-1H-pyrrole-3-carboxamide]
19 | 100 to 250 | 500 to 2500 | 100 to 250 | Cc1cnc(NC2CCCCC2)nc1-n1ccc(C(=O)NC(CO)c2cccc(Cl)c2)c1 (stereo not drawn) [Example 195, N-(1-(3-chlorophenyl)-2-hydroxyethyl)-1-(2-(cyclohexylamino)-5-methylpyrimidin-4-yl)-1H-pyrrole-3-carboxamide]
20 | 500 to 2500 | 500 to 2500 | 500 to 2500 | CNC(=O)c1ccc(Nc2ncc(C)c(-n3ccc(C(=O)NC(CO)c4cccc(Cl)c4)c3)n2)cc1 (stereo not drawn) [Example 196, N-(1-(3-chlorophenyl)-2-hydroxyethyl)-1-(5-methyl-2-((4-(methylcarbamoyl)phenyl)amino)pyrimidin-4-yl)-1H-pyrrole-3-carboxamide]
21 | 500 to 2500 | > 2500 | 250 to 500 | CCC(C)Nc1ncc(C)c(-n2ccc(C(=O)N[C@H](CO)c3ccc(F)c(Cl)c3)c2)n1 (stereo partly drawn) [Example 197, 1-(2-(sec-butylamino)-5-methylpyrimidin-4-yl)-N-((S)-1-(3-chloro-4-fluorophenyl)-2-hydroxyethyl)-1H-pyrrole-3-carboxamide]
22 | 500 to 2500 | 500 to 2500 | 500 to 2500 | Cc1cnc(Nc2ccc3c(c2)CC(=O)N3)nc1-n1ccc(C(=O)NC(CO)c2cccc(Cl)c2)c1 (stereo not drawn) [Example 198, N-(1-(3-chlorophenyl)-2-hydroxyethyl)-1-(5-methyl-2-((2-oxoindolin-5-yl)amino)pyrimidin-4-yl)-1H-pyrrole-3-carboxamide]
23 | 500 to 2500 | > 2500 | 500 to 2500 | Cc1cnc(NC2CCCN(C)C2)nc1-n1ccc(C(=O)NC(CO)c2cccc(Cl)c2)c1 (stereo not drawn) [Example 199, N-(1-(3-chlorophenyl)-2-hydroxyethyl)-1-(5-methyl-2-((1-methylpiperidin-3-yl)amino)pyrimidin-4-yl)-1H-pyrrole-3-carboxamide]
24 | 500 to 2500 | > 2500 | > 2500 | Cc1cnc(NC2CCCCC2O)nc1-n1ccc(C(=O)NC(CO)c2ccc(F)c(Cl)c2)c1 (stereo not drawn) [Example 202, N-(1-(3-chloro-4-fluorophenyl)-2-hydroxyethyl)-1-(2-((2-hydroxycyclohexyl)amino)-5-methylpyrimidin-4-yl)-1H-pyrrole-3-carboxamide]
25 | 500 to 2500 | > 2500 | 500 to 2500 | Cc1cnc(N[C@H]2CCOC2)nc1-n1ccc(C(=O)NC(CO)c2ccc(F)cc2)c1 (stereo partly drawn) [Example 204, N-(1-(4-fluorophenyl)-2-hydroxyethyl)-1-(5-methyl-2-(((S)-tetrahydrofuran-3-yl)amino)pyrimidin-4-yl)-1H-pyrrole-3-carboxamide]
